In paper PMC11487561 (ACS Chemical Neuroscience, 2024):

Experiments:
[1] = Binding in plasma from human (equilibrium dialysis); type: in vitro ADME; settings: human, plasma, fraction unbound; equilibrium dialysis; read-out: human fu,plasma
Procedure: (§1) Binding in plasma from rat and human.
(§2) Determination of compounds’ fraction unbound (f u) in plasma from rat and human was conducted in vitro via equilibrium dialysis using HTDialysis membrane plates. Dialysis membranes (four paired strips per HTD assay) were hydrated as described by the manufacturer and inserted into the HTD plate, which was assembled and prepared for sample addition by the dispensing of blank buffer (DPBS, 100 µL/well) into the ‘top half’ of each membrane-split well. Each compound was diluted into plasma from each species (5 µM final concentration), which was aliquoted in triplicate to the ‘bottom half’ of the prepared HTD plate wells. The HTD plate was sealed and incubated for 6 hours at 37 °C. Following incubation, each well (both top and bottom halves) were transferred (20 µL) to the corresponding wells of a 96-shallow-well (V-bottom) plate. The daughter plates were then matrix-matched (buffer side wells received equal volume of plasma, and plasma side wells received equal volume of buffer), and extraction solution (120 µL; acetonitrile containing 50 nM carbamazepine as IS) was added to all wells of both daughter plates to precipitate protein and extract test article. The plates were then sealed and centrifuged (3500 rcf) for 10 minutes at ambient temperature. Supernatant (60 µL) from each well of the daughter plates was then transferred to the corresponding wells of new daughter plates (96-shallow-well, V bottom) containing water (Milli-Q, 60 µL/well), and the plates were sealed in preparation for LC-MS/MS analysis (see below). fu was calculated as (analyte to IS MS peak area ratio from Trans-buffer side) / (analyte to IS MS peak area ratio from Cis-plasma side). Mean values for each species were calculated from 3 replicates.

In vivo dog iv/po PK = assay: In vivo dog iv/po PK
Procedure: Intravenous pharmacokinetics and plasma-brain level determination (IV PK PBL) VU6016235 […]
For dog PK, VU6016235 was formulated in 10% (2-Hydroxypropyl)-beta-cyclodextrin (HPbCD) at a concentration of 0.5 mg/ml and administered as a single dose of 0.5 mg/kg to male beagles (1 ml/kg, n=3).
Blood samples were collected serially from a surgically implanted carotid artery catheter in each animal over multiple post-administration time points (0.033, 0.117, 0.25, 0.5, 1, 2, 4, 7, and 24 hours) into chilled, K2EDTA anticoagulant-fortified tubes and immediately placed on wet ice. […]
over multiple post-administration time points (0.25, 0.5, 1, 2, 4, 7, and 24 hours) into chilled, K2EDTA anticoagulant-fortified tubes and immediately placed on wet ice. The blood samples were then centrifuged (1700 rcf, 5 minutes, 4 °C) in order to obtain plasma samples, which were stored at -80 °C until analysis […]
Samples preparation for bioanalysis
Plasma samples from the in-life phase of the study were thawed at ambient temperature (benchtop), and then aliquots (20 µL per sample) were transferred to a 96-shallow-well (V-bottom) plate. Matrix-matched quality control (QC) samples and a standard curve of […] (1 mg/mL DMSO stock solution) were prepared in blank rat plasma (K2EDTA-treated) or blank brain homogenate via serial dilution and transferred (20 µL each) to the plate along with multiple blank plasma and brain homogenate samples. Acetonitrile (120 µL) containing IS (10 nM carbamazepine) was added to each well of the plate to precipitate protein. The plate was then centrifuged (4000 rcf, 5 minutes, ambient temperature), and resulting supernatants (60 µL each) were transferred to a new 96-shallow-well (V-bottom) plate containing an equal volume (60 µL per well) of water (Milli-Q purified). […]
The plasma standard curve and QCs were used for compounds quantitation in brain.
as §1, §2

[2] = tested on: amphetamine-induced hyperlocomotion in rats; assay: Rat amphetamine-induced hyperlocomotion (AHL); type: in vivo; settings: for mean reversal of AHL: listed as VU6016235
Procedure: Rat Amphetamine-Induced Hyperlocomotion (AHL) Protocol
Male Harlan Sprague Dawley rats with a mean body weight of 240 g (range 221-264 g) were tested in SmartFrame Open Field locomotor activity test chambers to automatically record locomotor activity. All rats were habituated in locomotor activity enclosures for 30 min, followed by pretreatment by oral gavage for an additional 30 min with either vehicle or a dose of VU6016235 or the comparator M 4 PAM VU0467154. Next, rats were injected subcutaneously with vehicle or a dose of 0.75 mg/kg amphetamine and then monitored for an additional 60 min. Changes in locomotor activity were recorded for a total of 120 min. Locomotor data were expressed as the number of photobeam breaks/5 min intervals across the 120-min test session or as the total ambulation, calculated as sum of photobeam beam breaks from the time of amphetamine administration (60 min) until the end of the study (120 min). Time course data were analyzed by two-way ANOVA with main effects of treatment and time; changes in total ambulation were analyzed by one-way ANOVA followed by Dunnett’s post hoc test (GraphPad Prism 7 [GraphPad Software, San Diego, CA]). For all tests, α ≤ 0.05 was considered to represent statistical significance.
Finally, percent reversal data were calculated in Microsoft Excel using the following formula: Percent Reversal = 100 - {[(total ambulation in individual animal from t = 60 to t = 120) / (mean total ambulation […]
from t=60 to t=120 in the VAMP group)] * 100}. Mean percent reversal ± S.E.M. was calculated for each dose group using GraphPad Prism 7.
At the end of this behavioral study, each rat was euthanized, then decapitated, and the plasma and brain tissues were collected for the evaluation of exposure levels of VU6016235-05 or VU0467154-9A by pharmacokinetic analysis. […]

Adenosine A2A = molecular target: T1, Adenosine A2A (Homo sapiens, UniProt P29274); assay: Lead Profiling Screen – Eurofins Panlabs; type: binding; settings: read-out: % inh at 10 μM
T1 construct: Eurofins Panlabs
T1 sequence (P29274 whole entry): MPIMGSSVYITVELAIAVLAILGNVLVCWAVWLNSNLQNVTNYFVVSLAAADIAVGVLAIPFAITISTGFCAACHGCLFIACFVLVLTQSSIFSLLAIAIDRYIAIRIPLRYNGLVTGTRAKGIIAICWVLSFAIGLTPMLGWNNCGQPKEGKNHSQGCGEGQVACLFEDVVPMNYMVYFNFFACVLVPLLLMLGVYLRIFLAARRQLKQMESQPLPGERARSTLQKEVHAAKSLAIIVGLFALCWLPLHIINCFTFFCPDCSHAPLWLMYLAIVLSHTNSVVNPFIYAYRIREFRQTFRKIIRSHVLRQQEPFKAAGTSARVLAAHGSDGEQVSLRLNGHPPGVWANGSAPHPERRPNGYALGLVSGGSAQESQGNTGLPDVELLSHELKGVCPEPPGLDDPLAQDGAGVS

Adrenergic α2A = molecular target: T2, Adrenergic α2A (Homo sapiens, UniProt P08913); assay: Lead Profiling Screen – Eurofins Panlabs; type: binding; settings: read-out: % inh at 10 μM
T2 construct: Eurofins Panlabs (contract screen)
T2 sequence (P08913 whole entry): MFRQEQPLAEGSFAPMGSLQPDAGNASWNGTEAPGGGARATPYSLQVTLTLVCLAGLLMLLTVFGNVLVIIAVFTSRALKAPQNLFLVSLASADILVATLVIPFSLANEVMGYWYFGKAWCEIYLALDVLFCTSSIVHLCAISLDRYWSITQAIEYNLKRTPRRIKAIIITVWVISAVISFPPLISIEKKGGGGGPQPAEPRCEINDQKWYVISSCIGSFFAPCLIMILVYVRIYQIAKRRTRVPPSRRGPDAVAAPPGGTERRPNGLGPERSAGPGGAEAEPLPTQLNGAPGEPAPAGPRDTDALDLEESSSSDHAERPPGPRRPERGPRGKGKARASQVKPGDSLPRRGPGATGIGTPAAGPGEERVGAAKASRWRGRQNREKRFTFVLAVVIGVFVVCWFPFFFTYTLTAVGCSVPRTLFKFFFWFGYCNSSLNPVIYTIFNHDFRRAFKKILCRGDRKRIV

Dopamine D1 = molecular target: T3, Dopamine D1 (Homo sapiens, UniProt P21728); assay: Lead Profiling Screen – Eurofins Panlabs; type: binding; settings: read-out: % inh at 10 μM
T3 construct: Eurofins Panlabs (contract screen)
T3 sequence (P21728 whole entry): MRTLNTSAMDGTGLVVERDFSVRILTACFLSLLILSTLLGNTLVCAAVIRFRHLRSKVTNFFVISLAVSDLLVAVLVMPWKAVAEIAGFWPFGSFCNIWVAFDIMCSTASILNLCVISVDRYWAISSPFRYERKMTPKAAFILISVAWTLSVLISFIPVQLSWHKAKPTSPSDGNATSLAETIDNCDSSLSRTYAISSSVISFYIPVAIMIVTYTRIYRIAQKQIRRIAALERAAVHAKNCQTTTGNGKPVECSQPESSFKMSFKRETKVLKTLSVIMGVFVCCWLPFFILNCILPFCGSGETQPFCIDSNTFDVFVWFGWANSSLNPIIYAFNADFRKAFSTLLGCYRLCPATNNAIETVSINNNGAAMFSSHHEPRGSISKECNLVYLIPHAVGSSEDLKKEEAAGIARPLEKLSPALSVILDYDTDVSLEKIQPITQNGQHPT

Estrogen ERα = molecular target: T4, Estrogen ERα (Homo sapiens, UniProt P03372); assay: Lead Profiling Screen – Eurofins Panlabs; type: binding; settings: read-out: % inh at 10 μM
T4 construct: Eurofins Panlabs (contract screen)
T4 sequence (P03372 whole entry): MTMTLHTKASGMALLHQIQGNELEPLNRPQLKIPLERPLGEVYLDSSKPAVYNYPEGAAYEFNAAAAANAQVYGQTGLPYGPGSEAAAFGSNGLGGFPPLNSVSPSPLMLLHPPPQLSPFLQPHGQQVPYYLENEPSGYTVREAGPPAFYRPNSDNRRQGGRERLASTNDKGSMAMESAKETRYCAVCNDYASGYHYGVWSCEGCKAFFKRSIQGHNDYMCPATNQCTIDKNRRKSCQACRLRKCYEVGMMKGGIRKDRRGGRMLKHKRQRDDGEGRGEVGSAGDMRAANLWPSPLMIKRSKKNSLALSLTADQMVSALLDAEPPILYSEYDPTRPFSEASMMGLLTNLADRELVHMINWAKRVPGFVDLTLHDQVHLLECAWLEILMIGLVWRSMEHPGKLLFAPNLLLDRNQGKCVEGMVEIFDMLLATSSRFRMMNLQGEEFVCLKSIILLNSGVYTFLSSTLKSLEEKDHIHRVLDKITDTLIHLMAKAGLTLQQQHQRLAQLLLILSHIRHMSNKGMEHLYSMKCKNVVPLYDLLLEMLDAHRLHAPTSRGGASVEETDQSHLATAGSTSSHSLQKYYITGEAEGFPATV

GABAA, Muscimol, Central = assay: Lead Profiling Screen – Eurofins Panlabs; type: binding, rat
[3] = tested on: Glutamate, NMDA, Phencyclidine; assay: Lead Profiling Screen – Eurofins Panlabs; type: binding, rat
Opiate κ (OP2, KOP) = Opiate κ (OP2, KOP) (Homo sapiens, UniProt P41145); assay: Lead Profiling Screen – Eurofins Panlabs; type: binding; settings: read-out: % inh at 10 μM
Chain of Opiate κ (OP2, KOP) (P41145 whole entry): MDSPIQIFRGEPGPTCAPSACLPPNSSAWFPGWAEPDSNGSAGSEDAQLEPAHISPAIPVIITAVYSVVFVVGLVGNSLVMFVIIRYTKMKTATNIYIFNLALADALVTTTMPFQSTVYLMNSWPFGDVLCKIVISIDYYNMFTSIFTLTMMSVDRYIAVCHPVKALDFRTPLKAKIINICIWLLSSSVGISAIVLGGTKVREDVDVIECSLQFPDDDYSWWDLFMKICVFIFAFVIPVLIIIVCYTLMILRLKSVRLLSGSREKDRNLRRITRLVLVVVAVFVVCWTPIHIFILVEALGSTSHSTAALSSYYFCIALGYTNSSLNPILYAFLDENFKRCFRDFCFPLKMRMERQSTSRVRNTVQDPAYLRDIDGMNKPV

[4] = molecular target: Serotonin (5-Hydroxytryptamine) 5-HT1A (Homo sapiens, UniProt P08908); assay: Lead Profiling Screen – Eurofins Panlabs; type: binding; settings: read-out: % inh at 10 μM
Chain of Serotonin (5-Hydroxytryptamine) 5-HT1A (P08908 whole entry): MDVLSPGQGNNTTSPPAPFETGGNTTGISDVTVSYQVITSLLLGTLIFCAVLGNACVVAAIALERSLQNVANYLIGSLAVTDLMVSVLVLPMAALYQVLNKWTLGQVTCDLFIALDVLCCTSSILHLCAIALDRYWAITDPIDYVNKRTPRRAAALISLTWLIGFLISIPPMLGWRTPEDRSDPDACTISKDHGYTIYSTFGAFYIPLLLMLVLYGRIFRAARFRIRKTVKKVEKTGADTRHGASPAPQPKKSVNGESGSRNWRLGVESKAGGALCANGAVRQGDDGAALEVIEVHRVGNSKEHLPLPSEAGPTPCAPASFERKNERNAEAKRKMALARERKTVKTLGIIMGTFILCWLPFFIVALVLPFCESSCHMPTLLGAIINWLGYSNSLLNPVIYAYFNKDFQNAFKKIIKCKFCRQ

[5] = male, plasma, dog (beagle), iv 0.5 mg/kg
[6] = male, plasma, dog (beagle), po 1.0 mg/kg, fasted

For `Cc1nc(C)c2c(n1)sc1c(NCc3ccc(C(C)(C)O)cc3)nccc12` [22g], the fraction unbound at 6 h, 5 µM [1] was 0.014, the “plasma clearance as % hepatic blood flow” value (In vivo dog iv/po PK; dog) was ~78 % hepatic blood flow and the CLp (In vivo dog iv/po PK; dog (beagle), iv 0.5 mg/kg, listed as VU6016235, 0.5 mg/kg) was 23.8 mL/min/kg. The clearance (In vivo dog iv/po PK; male, beagle, dog, plasma, iv, 0.5 mg/kg, dog (beagle), iv 0.5 mg/kg, read-out: CLp) was ~24 mL/min/kg, the MRT (In vivo dog iv/po PK; [5]) was 1.6 h and the half-life (In vivo dog iv/po PK; [5]) was 144 min. For the same compound, the Vd (In vivo dog iv/po PK; male, plasma, dog (beagle), iv 0.5 mg/kg, read-out: Vss) was 2.3 L/kg, the AUC(0-inf) (In vivo dog iv/po PK; [6]) was 200 ng·h/mL and the Cmax (In vivo dog iv/po PK; [6]) was 62.4 ng/mL. For the same compound, the Tmax (In vivo dog iv/po PK; [6]) was 49.8 min, the bioavailability (In vivo dog iv/po PK; [6]) was 27.5% and the “mean % reversal of AHL” value ([2]; 0.56 mg/kg p.o. + amphetamine 0.75 mg/kg s.c.) was 12.8 ± 3.9%. For the same compound, the “mean reversal of AHL” value ([2]; 3 mg/kg p.o. + amphetamine 0.75 mg/kg s.c.) was 41.4%, the “mean reversal of AHL” value ([2]; 10 mg/kg p.o. + amphetamine 0.75 mg/kg s.c.) was 54.2% and the “MED, reversal of AHL” value ([2]; oral administration) was 1 mg/kg. The inhibition at 10 µM (Adenosine A2A) was 28%, the inhibition at 10 µM (Adrenergic α2A) was -9% and the inhibition at 10 µM (Dopamine D1) was 21%. For the same compound, the inhibition at 10 µM (Estrogen ERα) was -8%, the “% inh at 10 μM” value (GABAA, Muscimol, Central) was 1% and the “% inh at 10 μM” value [3] was -2%. The inhibition at 10 µM (Opiate κ (OP2, KOP)) was 4% and the inhibition at 10 µM [4] was 7%.
